Measurements published in the NIST ThermoML archive (doi:10.1016/j.jct.2014.07.003).

What was measured:
[1] = mn = molality of the nth substance listed, in mol/kg; settings: 99 kPa, Liquid, Alternating current cell with electrodes
[2] = 99 kPa, Liquid, Alternating current cell with electrodes

CCCC[N+](CCCC)(CCCC)CCCC.[Br-] [tetrabutylammonium bromide] + O
[1], m1 = 0.01
Settings | electrical conductivity [S/m]
288.15 K | 0.106
293.15 K | 0.0894
298.15 K | 0.0829
303.15 K | 0.0841
308.15 K | 0.083
313.15 K | 0.0843
318.15 K | 0.0856

CCCCC[N+](CCCCC)(CCCCC)CCCCC.[Br-] [tetrapentylammonium bromide] + O
[1], m1 = 0.01
Settings | electrical conductivity [S/m]
288.15 K | 0.0961
293.15 K | 0.0898
298.15 K | 0.0879
303.15 K | 0.09
308.15 K | 0.0897
313.15 K | 0.0881
318.15 K | 0.0903

O [water]
[2]
Settings | electrical conductivity [S/m]
288.15 K | 0.0005
293.15 K | 0.000281
298.15 K | 0.000585
303.15 K | 0.000687
308.15 K | 0.00057
313.15 K | 0.000608
318.15 K | 0.000835

O [water] + CCCCCCCCCCCC[N+](C)(C)C.[Br-]
[1], m2 = 0
Settings | electrical conductivity [S/m]
288.15 K | 0.0005
293.15 K | 0.000281
298.15 K | 0.000585
303.15 K | 0.000687
308.15 K | 0.00057
313.15 K | 0.000608
318.15 K | 0.000835
